US10770169B2, “Method of providing a treatment to a subject based on a dynamic pathway map” (THE REGENTS OF THE UNIVERSITY OF CALIFORNIA, priority 2010, dated 2020)
Like-named read-outs stand apart in the source and are kept apart here.

Test system: panel of 55 breast cancer cell lines
Test: Cell growth inhibition assay (Cell Titer Glo, 72 h, 9 doses; GI50, TGI, LC50)
Type: cell-based, human
Details: Homo sapiens, read-out: GI50 (converted)

SMILES: COc1cccc2c1C(=O)c1c(O)c3c(c(O)c1C2=O)C[C@@](O)(C(=O)CO)C[C@@H]3O[C@H]1C[C@H](N)[C@H](O)[C@H](C)O1 [Doxorubicin]
- GI50 (600MPE cell line, censored GI50 values): 269 nM
- GI50 (AU565, AU565 cell line, censored GI50 values): 93.3 nM
- GI50 (AU565, cell line AU565): 93.3 nM
- GI50 (BT-474, BT474 cell line, censored GI50 values): 309 nM
- GI50 (BT-474, cell line BT474): 309 nM
- GI50 (BT-483, BT483 cell line, censored GI50 values): 151 nM
- GI50 (BT-483, cell line BT483): 151 nM
- GI50 (CAMA-1, CAMA1 cell line, censored GI50 values): 263 nM
- GI50 (CAMA-1, cell line CAMA1): 263 nM
- GI50 (HCC38, HCC38 cell line, censored GI50 values): 72.4 nM
- GI50 (HCC38, cell line HCC38): 72.4 nM
- GI50 (HCC70, HCC70 cell line, censored GI50 values): 2290 nM
- GI50 (HCC70, cell line HCC70): 2290 nM
- GI50 (HCC202, HCC202 cell line, censored GI50 values): 525 nM
- GI50 (HCC202, cell line HCC202): 525 nM
- GI50 (HCC1143, HCC1143 cell line, censored GI50 values): 525 nM
- GI50 (HCC1143, cell line HCC1143): 525 nM
- GI50 (HCC1187, HCC1187 cell line, censored GI50 values): 132 nM
- GI50 (HCC1187, cell line HCC1187): 132 nM
- GI50 (HCC1395, HCC1395 cell line, censored GI50 values): 251 nM
- GI50 (HCC1395, cell line HCC1395): 251 nM
- GI50 (HCC1419, HCC1419 cell line, censored GI50 values): 513 nM
- GI50 (HCC1419, cell line HCC1419): 513 nM
- GI50 (HCC1428, HCC1428 cell line, censored GI50 values): 1200 nM
- GI50 (HCC1428, cell line HCC1428): 1200 nM
- GI50 (HCC1500, HCC1500 cell line, censored GI50 values): 200 nM
- GI50 (HCC1500, cell line HCC1500): 200 nM
- GI50 (HCC1806, HCC1806 cell line, censored GI50 values): 162 nM
- GI50 (HCC1806, cell line HCC1806): 162 nM
- GI50 (HCC1954, HCC1954 cell line, censored GI50 values): 186 nM
- GI50 (HCC1954, cell line HCC1954): 186 nM
- GI50 (HCC2185 cell line, censored GI50 values): 69.2 nM
- GI50 (HCC3153 cell line, censored GI50 values): 355 nM
- GI50 (LY2 cell line, censored GI50 values): 195 nM
- GI50 (MCF7, MCF7 cell line, censored GI50 values): 501 nM
- GI50 (MCF7, cell line MCF7): 501 nM
- GI50 (MDA-MB-134-VI, MDAMB134VI cell line, censored GI50 values): 1200 nM
- GI50 (MDA-MB-157, MDAMB157 cell line, censored GI50 values): 398 nM
- GI50 (MDA-MB-157, cell line MDAMB157): 398 nM
- GI50 (MDA-MB-175-VII, MDAMB175VII cell line, censored GI50 values): 708 nM
- GI50 (MDA-MB-231, MDAMB231 cell line, censored GI50 values): 214 nM
- GI50 (MDA-MB-231, cell line MDAMB231): 214 nM
- GI50 (MDA-MB-361, MDAMB361 cell line, censored GI50 values): 234 nM
- GI50 (MDA-MB-361, cell line MDAMB361): 234 nM
- GI50 (MDA-MB-415, MDAMB415 cell line, censored GI50 values): 372 nM
- GI50 (MDA-MB-415, cell line MDAMB415): 372 nM
- GI50 (MDA-MB-436, MDAMB436 cell line, censored GI50 values): 589 nM
- GI50 (MDA-MB-436, cell line MDAMB436): 589 nM
- GI50 (MDA-MB-453, MDAMB453 cell line, censored GI50 values): 214 nM
- GI50 (MDA-MB-453, cell line MDAMB453): 214 nM
- GI50 (MDA-MB-468, MDAMB468 cell line, censored GI50 values): 741 nM
- GI50 (MDA-MB-468, cell line MDAMB468): 741 nM
- GI50 (SK-BR-3, SKBR3 cell line, censored GI50 values): 126 nM
- GI50 (SK-BR-3, cell line SKBR3): 126 nM
- GI50 (SUM52PE, SUM52PE cell line, censored GI50 values): 97.7 nM
- GI50 (SUM52PE, cell line SUM52PE): 97.7 nM
- GI50 (SUM185PE, SUM185PE cell line, censored GI50 values): 309 nM
- GI50 (SUM185PE, cell line SUM185PE): 309 nM
- GI50 (SUM1315MO2, SUM1315MO2 cell line, censored GI50 values): 214 nM
- GI50 (SUM-159-PT, SUM159PT cell line, censored GI50 values): 347 nM
- GI50 (SUM-159-PT, cell line SUM159PT): 347 nM
- GI50 (UACC-812, UACC812 cell line, censored GI50 values): 74.1 nM
- GI50 (UACC-812, cell line UACC812): 74.1 nM
- GI50 (UACC-893, UACC893 cell line, censored GI50 values): 832 nM
- GI50 (UACC-893, cell line UACC893): 832 nM
- GI50 (ZR-75-1, ZR751 cell line, censored GI50 values): 138 nM
- GI50 (ZR-75-1, cell line ZR751): 138 nM
- GI50 (ZR-75-30, ZR7530 cell line, censored GI50 values): 110 nM
- GI50 (ZR-75-30, cell line ZR7530): 110 nM
- GI50 (ZR-75B, ZR75B cell line, censored GI50 values): 251 nM
- GI50 (ZR-75B, cell line ZR75B): 251 nM
- GI50 (cell line 600MPE): 269 nM
- GI50 (cell line HCC2185): 69.2 nM
- GI50 (cell line HCC3153): 355 nM
- GI50 (cell line LY2): 195 nM
- GI50 (cell line MDAMB134V): 1200 nM
- GI50 (cell line MDAMB175V): 708 nM
- GI50 (cell line SUM1315MO): 214 nM
